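Here, GI50 denotes the concentration required for 50% inhibition of growth. TGI denotes the concentration required for complete inhibition of growth.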
Key:
Assay in all cases: NCI anticancer screen, dose series, 384-well format
NCI-H23 lung = system: NCI-H23 lung
NCI-H322M lung = system: NCI-H322M lung
NCI-H460 NSCLC = system: NCI-H460 NSCLC
NCI-H522 lung = system: NCI-H522 lung
NCI/ADR-RES ovarian = system: NCI/ADR-RES ovarian
OVCAR-3 ovarian = system: OVCAR-3 ovarian
OVCAR-4 ovarian = system: OVCAR-4 ovarian
OVCAR-5 ovarian = system: OVCAR-5 ovarian
OVCAR-8 ovarian = system: OVCAR-8 ovarian
PC-3 prostate = system: PC-3 prostate
RPMI-8226 leukemia = system: RPMI-8226 leukemia
RXF 393 renal = system: RXF 393 renal
SF-268 CNS = system: SF-268 CNS
SF-295 CNS = system: SF-295 CNS
SF-539 CNS = system: SF-539 CNS
SK-MEL-2 melanoma = system: SK-MEL-2 melanoma
SK-MEL-28 melanoma = system: SK-MEL-28 melanoma
SK-MEL-5 melanoma = system: SK-MEL-5 melanoma
SK-OV-3 ovarian = system: SK-OV-3 ovarian
SN12C renal = system: SN12C renal
SNB-19 CNS = system: SNB-19 CNS
SR leukemia = system: SR leukemia
SW-620 colon = system: SW-620 colon
T-47D breast = system: T-47D breast
TK-10 renal = system: TK-10 renal
U251 glioblastoma = system: U251 glioblastoma
UACC-257 melanoma = system: UACC-257 melanoma
UACC-62 melanoma = system: UACC-62 melanoma
UO-31 renal = system: UO-31 renal

SMILES: COc1ccc(CC(NC(=O)[C@H](C)NC(=O)CN2CCOCC2)C(=O)N[C@@H](Cc2ccccc2)C(=O)[C@@]2(C)CO2)cc1 (some centres not stated)
- TGI (NCI-H23 lung): 362 nM
- GI50 (NCI-H322M lung): 284 nM
- TGI (NCI-H322M lung): 860 nM
- GI50 (NCI-H460 NSCLC): 181 nM
- TGI (NCI-H460 NSCLC): 355 nM
- GI50 (NCI-H522 lung): 167 nM
- TGI (NCI-H522 lung): 304 nM
- GI50 (NCI/ADR-RES ovarian): 20400 nM
- TGI (NCI/ADR-RES ovarian): 59400 nM
- GI50 (OVCAR-3 ovarian): 131 nM
- TGI (OVCAR-3 ovarian): 262 nM
- GI50 (OVCAR-4 ovarian): 147 nM
- TGI (OVCAR-4 ovarian): 284 nM
- GI50 (OVCAR-5 ovarian): 192 nM
- TGI (OVCAR-5 ovarian): 360 nM
- GI50 (OVCAR-8 ovarian): 184 nM
- TGI (OVCAR-8 ovarian): 340 nM
- GI50 (PC-3 prostate): 188 nM
- TGI (PC-3 prostate): 333 nM
- GI50 (RPMI-8226 leukemia): 23.8 nM
- TGI (RPMI-8226 leukemia): 55.4 nM
- GI50 (RXF 393 renal): 135 nM
- TGI (RXF 393 renal): 268 nM
- GI50 (SF-268 CNS): 136 nM
- TGI (SF-268 CNS): 269 nM
- GI50 (SF-295 CNS): 157 nM
- TGI (SF-295 CNS): 294 nM
- GI50 (SF-539 CNS): 175 nM
- TGI (SF-539 CNS): 315 nM
- GI50 (SK-MEL-2 melanoma): 22.6 nM
- TGI (SK-MEL-2 melanoma): 93.8 nM
- GI50 (SK-MEL-28 melanoma): 132 nM
- TGI (SK-MEL-28 melanoma): 262 nM
- GI50 (SK-MEL-5 melanoma): 192 nM
- TGI (SK-MEL-5 melanoma): 345 nM
- GI50 (SK-OV-3 ovarian): 171 nM
- TGI (SK-OV-3 ovarian): 312 nM
- GI50 (SN12C renal): 179 nM
- TGI (SN12C renal): 320 nM
- GI50 (SNB-19 CNS): 188 nM
- TGI (SNB-19 CNS): 347 nM
- GI50 (SR leukemia): 30.4 nM
- TGI (SR leukemia): 106 nM
- GI50 (SW-620 colon): 167 nM
- TGI (SW-620 colon): 312 nM
- GI50 (T-47D breast): 159 nM
- TGI (T-47D breast): 302 nM
- GI50 (TK-10 renal): 298 nM
- TGI (TK-10 renal): 802 nM
- GI50 (U251 glioblastoma): 173 nM
- TGI (U251 glioblastoma): 316 nM
- GI50 (UACC-257 melanoma): 123 nM
- TGI (UACC-257 melanoma): 253 nM
- GI50 (UACC-62 melanoma): 126 nM
- TGI (UACC-62 melanoma): 254 nM
- GI50 (UO-31 renal): 1750 nM
- TGI (UO-31 renal): 3170 nM

— PubChem BioAssay (NCI)
